From patent US11324740B2, “Use of agonists of type-2 dopaminergic receptors in treatment of conditions caused by elevated vascular endothelial growth factor levels” (priority 2016, dated 2022)

Columns and labels:
Assay type in all cases: in vivo, Wistar strain rats
Conditions in all cases: cabergoline oral 0.05 mg/kg b.w. over 14 days
[1] = test system: experimental model for diabetic retinopathy; test: Blood-retinal barrier permeability (dextran method) and retinal thickness (OCT) in streptozocin model for diabetic retinopathy
Method: (§1) The Effects of Administration of Cabergoline on Permeability of Blood-Retinal Barrier and on Retinal Thickness in an Experimental Model for Diabetic Retinopathy The research was conducted on an experimental model of Wistar strain rats. In order to cause diabetes, the rats were injected intraperitoneally with streptozocin at a dose of 60 mg/kg b.w. After 30 days since administration of streptozocin blood glucose level was checked and only rats with the blood glucose levels of over 250 mg % were qualified for the experiment. In the course of the experiment, the following parameters were assessed: permeability of blood-retinal barrier using the dextran method (BRB) and the thickness of the retina using optical coherence tomography (OCT). In the experiment, 4 experimental groups were compared: healthy animals without cabergoline administration, healthy animals with cabergoline administration (14 days of use), animals with diabetes without cabergoline, animals with diabetes with cabergoline (14 days of use). Cabergoline was administered to the animals in oral form at a dose of 0.05 mg/kg b.w. over 14 days.

[2] = test system: experimental model for central retinal vein occlusion; test: Blood-retinal barrier permeability (dextran method) and retinal thickness (OCT) in laser model for central retinal vein occlusion
Method: as §1, with “and” for “and on”, “Central Retinal Vein Occlusion.” for “Diabetic Retinopathy”, “Central retinal vein occlusion was performed using” for “In order to cause diabetes, the rats were injected intraperitoneally with streptozocin at”, “532 nm laser.” for “dose of 60 mg/kg b.w. After 30 days since administration of streptozocin blood glucose level was checked and only rats with the blood glucose levels of over 250 mg % were qualified for the experiment.”, “central retinal vein occlusion” for “diabetes”

[3] = test system: experimental model for choroidal neovascularization (CNV); test: Blood-retinal barrier permeability (dextran method) and retinal thickness (OCT) in laser model for choroidal neovascularization (CNV)
Method: as §1, with “and” for “and on”, “Choroidal Neovascularization (CNV).” for “Diabetic Retinopathy”, “Choroidal neovascularization (CNV) was performed by photocoagulation of” for “In order to cause diabetes,”, “retina using” for “rats were injected intraperitoneally with streptozocin at”, “532 nm laser.” for “dose of 60 mg/kg b.w. After 30 days since administration of streptozocin blood glucose level was checked and only rats with the blood glucose levels of over 250 mg % were qualified for the experiment.”, “CNV” for “diabetes”

[4] = rats with streptozocin diabetes
[5] = rats with central retinal vein occlusion

For C=CCN1C[C@H](C(=O)N(CCCN(C)C)C(=O)NCC)C[C@@H]2c3cccc4[nH]cc(c34)C[C@H]21 [cabergoline, Cabergoline], the “BRB (permeability of blood-retinal barrier, dextran method)” value (“BRB” below) ([1]; healthy rats) was 22.4 ± 7.5 µL/g/min, the “OCT (thickness of the retina)” value ([1]; healthy rats) was 281 ± 14 μm and the “BRB” value [1, 4] was 35.8 ± 10.6 µL/g/min. For the same compound, the “OCT (thickness of the retina)” value [1, 4] was 320 ± 35 μm, the “BRB” value ([2]; healthy rats) was 25.1 ± 4.2 µL/g/min and the “OCT (thickness of the retina)” value ([2]; healthy rats) was 258 ± 13 μm. For the same compound, the “BRB” value [2, 5] was 33.3 ± 12.9 µL/g/min, the “OCT (thickness of the retina)” value [2, 5] was 343 ± 28 μm and the “BRB” value ([3]; healthy rats) was 28.5 ± 6.6 µL/g/min. The “OCT (thickness of the retina)” value ([3]; healthy rats) was 221 ± 22 μm, the “BRB” value ([3]; rats with CNV) was 37.4 ± 15.2 µL/g/min and the “OCT (thickness of the retina)” value ([3]; rats with CNV) was 283 ± 17 μm.
